# Measurements published in patent US20220362299A1, “ENGINEERED NATURAL KILLER CELLS AND METHODS FOR USING THE SAME IN IMMUNOTHERAPY AND AUTOPHAGY INHIBITON TECHNIQUES” (Purdue Research Foundation, priority 2019, published 2022).
# Legend:
# GBM43 cells [1] = assay: ELISA of CCL5 and CXCL10 in supernatant of GBM43 cells; format: cell-based, human; details: CQ 50 μM, 24 h
# Description: To evaluate changes in the protein levels of these chemokines and gain more insight into the underlying molecular mechanisms, chemokine concentrations were quantified in the conditioned media of CQ-treated GBM43 cells using ELISA in absence and presence of various pharmacological inhibitors driving signaling pathways for these chemokines. This included the PI3K inhibitor LY294002, NF-κB inhibitor BAY11-7082 and JNK inhibitor SP600125.
# More specifically, to measure secreted CCL5 and CXCL10, GBM43 cells were treated with CQ at a final concentration of 50 μM in presence or absence of various small molecule inhibitors, including LY294002, BAY11-7082 and SP600125 for 24 hours. Supernatants were collected and the levels of CCL5 and CXCL10 were quantified using Human CCL5 and CXCL10 Biolegend-ELISA MAX™ Deluxe Sets according to the manufacturer's directions. To look at the levels of multiple chemokines secretion from GBM43 cells, the cell culture supernatants were also collected and all the selected targets were determined with the chemokine array provided by Eve Technologies (Calgary, Canada).
# GBM43 cells [2] = assay: Subcutaneous GBM43 xenograft model; format: in vivo, NSG mice
# Description: Subcutaneous GBM xenografts were established by inoculating NSG mice with 3×10^6 GBM43 cells in the right flank. Ten days later, when tumors reached a volume of about 80 mm^3, mice were randomly assigned to 5 groups (n=4/group) and treated according to one of the following protocols: (1) PBS only; (2) intravenous (IV) injection of 5×10^6 pNK cells alone; (3) intravenous (IV) injection of 5×10^6 CD73.mCAR-pNK cells alone (Construct 1); (4) intraperitoneal (IP) injection of CQ (50 mg/kg) alone. NK cells were administered once a week for three weeks. The mice receiving adoptive NK cells therapy (groups 2 and 3) also received IL-15 (0.5 μg/mice) by IP injection every 3-4 days. Tumor growth was followed by caliper measurements and tumor volumes were calculated using the formula: V=0.52×L×W×H as described above. Body weights of the mice were recorded throughout the treatment. At the end of the therapy, the mice were sacrificed and tumors were harvested for histologic (IHC/IF) analyses.
# (§1) Immunohistochemistry (IHC) and immunofluorescence (IF) staining were carried out at the Histology Research Laboratory at the Purdue University College of Veterinary Medicine (West Lafayette, Ind.). Briefly, the tumors were fixed in 10% neutral-buffered formalin, embedded in paraffin, and cut into 3-5 μm sections.
# CCL5 and CXCL10 expression in the tumors were detected through the staining using human CCL5/RANTES antibody and CXCL10 antibody respectively. The staining was evaluated based on the intensity (weak=1, moderate=2, and high=3) of chemokine immunostaining and the density (0%=0, 1-40%=1, 41-75%=2, >76%=3) of positive tumor cells. The final score of each sample was multiplied by the intensity and density.
# For subcutaneous GBM43 xenografts, NK cell infiltration was investigated by IF staining performed with the following stains: Protein L (Alexa 647, far red), NKp46 (Alexa 488, green) and DAPI nuclear counterstain. CCL5 and CXCL10 expression were evaluated by IHC staining as described above. CD73 expression in the tumors was detected through the staining using human CD73 antibody.
# The treatment schedule is summarized in FIG. 17, subpart A. Briefly, 3×10^6 GBM43 cells were subcutaneously (SC) implanted into the right flank of the mice (Day 0). 10 days later (Day 10), mice in the CQ group were intraperitoneally (IP) injected with CQ at 50 mg/kg for 3 weeks, once a week. One day later (Day 11), the mice in pNK and CD73.mCAR-pNK groups were treated with 5×10^6 adoptively-transferred pNK or CD73.mCAR-pNK cells intravenously (IV), once a week for 3 weeks. Starting on the day of the first injection of NK cells, all mice received 0.5 μg of IL-15 once every 3-4 days IP.
# GBM43-Luc cells = assay: Orthotopic GBM43 (Luc) xenograft model; format: in vivo, NSG mice
# Description: Additionally, orthotopic GBM xenografts were generated using NSG mice as previously described. Briefly, on day 0, the GBM43 (Luc) cells (1×10^5) were stereotactically implanted into the right forebrain through a digitalized stereotactic delivery system. […] CD73.mCAR-pNK cells were administered once a week for three weeks. Tumor volumes were monitored and recorded using the Spectral Ami Optical imaging system. Body weights of the mice were also recorded during the treatment period. At the end of the treatment, the mice were sacrificed and whole brain tissues from each mouse were harvested for adenosine measurement and IHC/IF analyses.
# as §1
# For intracranial GBM xenografts, the NK cells in tumors were detected through the staining using human NKp46/NCR1 antibody. CCL5 and CXCL10 expression in the tumors were detected through the staining using human CCL5/RANTES antibody and CXCL10 antibody, respectively. CD73 expression in the tumors was detected through the staining using human CD73 antibody.
# In addition to the foregoing, intratumoral adenosine concentrations were also assessed. Brain tissues were harvested post-treatment, rinsed with cold PBS and homogenized in PBS. After that, the suspension was centrifuged at 10,000 g for 10 minutes at 4° C. and the supernatant was collected. Adenosine concentrations were determined using an Adenosine Assay Kit according to the manufacturer's directions. The IHC staining was performed as described above.
# GBM43 cells [3] = assay: GBM43 cell viability after CQ treatment (CCK-8); format: cell-based, human; details: 24 h
# Description: Alternatively, autophagy was inhibited pharmacologically via treatment with chloroquine (CQ), a common FDA-approved autophagy inhibitor (see FIG. 11). These targeting approaches were tested on both NK cell infiltration and effector functions. For this approach, GBM43 cells were treated with different concentrations of CQ. To determine in vitro cell viability in response to CQ, GBM43 cells were seeded in 96-well plates at a density of 1×10^4 cells/well. After overnight culture, the cells were treated with different concentrations of CQ and incubated for another 24 hours. The cell viability was then determined with CCK-8 assay analysis.
# GBM43 cells [4] = assay: Surface expression of NKG2DL, CD73 and GD2 on GBM43 cells after CQ (flow cytometry); format: cell-based, human; details: 24 h
# Description: In addition to the increase in NK cell intratumoral infiltration, NK2G2DL expression (MFI and percentage) on GBM43 cells after 24 hours of treatment with various concentrations of CQ was evaluated.
substance,measurement,setting,value
Chloroquine diphosphate salt [CQ],secreted CCL5 vs untreated control cells,GBM43 cells [1],significantly higher amounts
same,secreted CXCL10 vs untreated control cells,GBM43 cells [1],significantly higher amounts
same,mean tumor volume,"GBM43 cells [2]; NK cells 5×10^6 IV once a week for 3 weeks, CQ 50 mg/kg IP, PBS group 1475",953.25 mm^3
same,CCL5 in tumor tissues (IHC),"GBM43 cells [2]; mouse, in vivo",significantly higher presence
same,CXCL10 in tumor tissues (IHC),"GBM43 cells [2]; mouse, in vivo",significantly higher presence
same,mean tumor weight,"GBM43 cells [2]; necropsy day 28 post-start of treatment, PBS group 2.31",1.16 g
same,expression of CD73 on tumors (IHC),GBM43 cells [2]; vs other treatment groups,lower level
same,tumor growth (bioluminescence imaging),"GBM43-Luc cells; CQ 50 mg/kg IP, CD73.mCAR-pNK intracranial, weekly for three weeks, vs control group",no significant effect
same,CCL5 expression in tumor tissues (IHC),"GBM43-Luc cells; mouse, in vivo",robustly up-regulated
same,CXCL10 expression in tumor tissues (IHC),"GBM43-Luc cells; mouse, in vivo",robustly up-regulated
same,crossing of the blood-brain barrier in vivo,"GBM43-Luc cells; mouse, in vivo",able to cross the blood-brain barrier
same,IC50,GBM43 cells [3],67.1 µM
same,expression of CD73 (MFI) on GBM43 cells,GBM43 cells [4]; CQ 6.25 μM,~70 % of control
same,expression of GD2 (MFI) on GBM43 cells,GBM43 cells [4]; CQ 50 μM or higher,decreased
same,NKG2DL expression (% and MFI) on GBM43 cells,GBM43 cells [4]; CQ at various concentrations,increased significantly
same,percentage expression (%) of GD2 on GBM43 cells,"GBM43 cells [4]; CQ up to 100 μM then constant, control cells ~58%",~46%
